Laboratory results published in patent US20170128475A1, “COMPOSITIONS AND METHODS FOR PREVENTING AND TREATING ORGAN INJURY AND/OR DYSFUNCTION” (THE GENERAL HOSPITAL CORPORATION, priority 2010, published 2017).

How the values were obtained:
[1] = system: Cx32+/+ and Cx32−/− mice; assay: TAA-induced mortality in Cx32+/+ and Cx32−/− mice; format: in vivo; conditions: single lethal dose 500 mg/kg TAA, 30 days
Experimental: FIG. 1C is a series of micrographs showing less liver hemorrhaging, necrosis and acute inflammation in Cx32−/− mice compared to Cx32+/+ mice 24 hours after TAA treatment (H&E staining; original magnification 10×; scale bar=400 μm). FIG. 1D presents bar graphs depicting increase in total liver TNF-α, pro-IL-1α, IL-6, and CCL5 transcripts, as measured by Q-PCR, in Cx32+/+ mice 12 hours after TAA, compared to Cx32−/− mice. FIG. 1E is a bar graph of liver tissue myeloperoxidase activity (MPO) in Cx32+/+ and Cx32−/− mice 24 hours after treatment with TAA. FIG. 1F is a Kaplan-Meier survival curve for Cx32+/+ and Cx32−/− mice over 30 days after a single lethal dose of 500 mg/kg TAA (Cx32+/+ and Cx32−/−: n=12).
C57BL/6 mice were purchased from Jackson Laboratory. Cx32−/− mice were a generous gift from K. Willecke (University of Bonn) and D. Paul (Harvard University). All animal protocols were approved by Massachusetts General Hospital Subcommittee on Research Animal Care. For survival experiments, animals were euthanized when they became moribund according to the criteria of lack of response to stimuli or lack of righting reflex.
TAA (Sigma Aldrich, St. Louis, Mo.) solution was made fresh for each experiment in 0.9% saline at 20 mg/ml. TAA was dosed at 200, 500 or 1000 mg/kg, depending on the experiment, and injected intraperitoneally. Control mice received the appropriate volume of 0.9% saline. […]

[2] = system: hepatic gap junction communication; assay: Tissue scrape and load assay on explanted liver slices; format: in vivo, mice; conditions: 2APB 20 mg/kg i.p.; livers excised after 3 hours
Experimental: (§1) FIG. 2A-FIG. 2F presents data on small molecule inhibitors of Cx32 that selectively block hepatic gap junction communication and limit drug-induced hepatotoxicity. FIG. 2A and FIG. 2B depict a dye-coupling parachute assay was used to determine the specificity of 2APB for Cx32 gap junctions compared to Cx43 gap junctions. HeLa Cx32 or Cx43 cells were loaded with gap junction permeable calcein-AM (10 μM) and impermeable CM-DiI (10 μM), and seeded onto unlabeled recipient HeLa Cx32 or Cx43 cells, respectively, in the presence or absence of 2APB (100 μM). After 4 hours, the co-culture was analyzed by fluorescence microscopy (n>5), and gap junction communication was assessed by calculating the average number of calcein positive cells per CM-Dil positive cells, normalized to control conditions without 2APB treatment. […] Slices were washed, fixed, cryosectioned (7 μm), and analyzed by fluorescence microscopy (n>5) and custom automated image analysis software to produce iso-intensity contour maps outlining spread of Lucifer yellow and dextran-Texas red. […]
Fluorescence images were captured on a Zeiss 200 Axiovert microscope at a fixed exposure and gain. Images for the tissue scrape load assay were quantified using custom image analysis routines written in MATLAB13. […] Regional outlines were plotted as contour maps by displaying iso-intensity lines at the determined threshold level.

[3] = biological target: Cx32 gap junctions (Homo sapiens, UniProt P08034); conditions: shown previously, Tao & Harris, 71 Mol. Pharmacol. 57 (2007); cited from earlier work
Chain of Cx32 gap junctions (Homo sapiens, UniProt P08034) (P08034 whole entry): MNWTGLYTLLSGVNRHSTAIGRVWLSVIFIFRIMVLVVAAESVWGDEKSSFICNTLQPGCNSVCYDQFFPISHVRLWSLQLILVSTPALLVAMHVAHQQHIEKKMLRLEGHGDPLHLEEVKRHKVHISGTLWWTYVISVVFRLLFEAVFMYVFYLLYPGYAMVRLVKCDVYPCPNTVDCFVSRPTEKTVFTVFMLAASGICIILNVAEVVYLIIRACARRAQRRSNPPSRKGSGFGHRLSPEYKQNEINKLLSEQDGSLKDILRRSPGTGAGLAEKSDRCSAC

[4] = system: wild type mice; assay: APAP-induced hepatotoxicity in wild type mice treated with 2APB; format: in vivo
Experimental: (§2) Serum ALT levels (FIG. 3A); liver tissue MPO activity (FIG. 3B); and H&E liver sections (FIG. 3C) (original magnification 10×; scale bar=400 μm) from wildtype mice after treatment with 2APB alone (20 mg/kg), TAA (200 mg/kg) plus vehicle, TAA (200 mg/kg) plus 2APB (1 or 20 mg/kg), APAP (500 mg/kg) plus vehicle, or APAP (500 mg/kg) plus 2APB (20 mg/kg). Livers and sera were collected 24 hours after TAA challenge, or 16 hours after APAP challenge. FIG. 3D reflects Q-PCR for TNF-α, […], IL-6, and CCL5 from whole livers of mice treated with TAA and 2APB as described above. FIG. 3E is a Kaplan-Meier survival curve for wildtype mice over 30 days after a single lethal dose of TAA (500 mg/kg) plus vehicle, or TAA (500 mg/kg) plus 2APB (20 mg/kg) (n=10). Serum ALT levels (FIG. 3F) and H&E liver sections (FIG. 3G) (original magnification 10×; scale bar=400 μm) from wildtype mice after TAA (200 mg/kg) or APAP (500 mg/kg), with or without a rescue injection of 2APB (20 mg/kg) at 1.5, 3 or 6 hours after hepatotoxin challenge. Livers and sera were collected 24 hours after TAA challenge, or 16 hours after APAP challenge.
APAP (Sigma Aldrich) solution was made fresh for each experiment in 0.9% saline at 20 mg/ml and heated until dissolved. APAP was dosed at 500 or 750 mg/kg, and injected intraperitoneally after 15 hr of starvation. Animals were euthanized by ketamine/xylazine injection at 16 hr for collection of serum, and liver tissue for MPO activity assay and histology.
2APB (Sigma Aldrich) was made fresh for each experiment in DMSO as a vehicle at 200 mg/ml. 2APB was dosed at 1 or 20 mg/kg, and was administered before (90 min), with, or after (1.5, 3 or 6 hr) the appropriate dose of TAA or APAP. Vehicle control mice received the appropriate volume of DMSO. Fresh anhydrous DMSO (Sigma Aldrich) was used for each experiment. DMSO was dosed at 0.1 or 1 ml/kg, and coadministered concurrently with 200 mg/kg TAA or saline.
Mouse liver tissues were homogenized in MPO buffer (0.5% hexadecyl trimethyl ammonium bromide, 10 mM EDTA, 50 mM Na2HPO4, pH 5.4) using a Polytron homogenizer. Liver homogenates were then subject to three freeze-thaw cycles and cleared by centrifugation. MPO reaction was carried out using the Invitrogen EnzChek Myeloperoxidase Activity Assay Kit (Invitrogen, Carlsbad, Calif.), according to the manufacturer's protocol.

[5] = system: Cx32 gap junctions; assay: Dye-coupling parachute assay, HeLa Cx32 cells; format: cell-based; conditions: 2APB 100 μM, 4 hours, normalized to no 2APB
Experimental: as §1, with “treatment. FIG. 2C depicts a tissue version of the scrape and load test, developed to evaluate functional gap junction intercellular communication in liver tissue. Cx32+/+ and Cx32−/− mice were treated with saline, 2APB (20 mg/kg), or 2APB plus TAA (200 mg/kg) for 3 hours.” for “treatment.”

[6] = system: Cx43 gap junctions; assay: Dye-coupling parachute assay, HeLa Cx43 cells; format: cell-based; conditions: 2APB 100 μM, 4 hours, normalized to no 2APB
Experimental: as §1, with “treatment. FIG. 2C depicts a tissue version of the scrape and load test, developed to evaluate functional gap junction intercellular communication in liver tissue. Cx32+/+ and Cx32−/− mice were treated with saline, 2APB (20 mg/kg), or 2APB plus TAA (200 mg/kg) for 3 hours.” for “treatment.”

[7] = system: wild type mice; assay: TAA-induced hepatotoxicity in wild type mice treated with 2APB; format: in vivo; conditions: for total hepatic ROS levels: 2APB (20 mg/kg) coadministered with TAA (200 mg/kg), 4 hours, dihydroethidium staining
Experimental: FIG. 2A-FIG. 2F presents data on small molecule inhibitors of Cx32 that selectively block hepatic gap junction communication and limit drug-induced hepatotoxicity. FIG. 2A and FIG. 2B depict a dye-coupling parachute assay was used to determine the specificity of 2APB for Cx32 gap junctions compared to Cx43 gap junctions. HeLa Cx32 or Cx43 cells were loaded with gap junction permeable calcein-AM (10 μM) and impermeable CM-DiI (10 μM), and seeded onto unlabeled recipient HeLa Cx32 or Cx43 cells, respectively, in the presence or absence of 2APB (100 μM). After 4 hours, the co-culture was analyzed by fluorescence microscopy (n>5), and gap junction communication was assessed by calculating the average number of calcein positive cells per CM-Dil positive cells, normalized to control conditions without 2APB treatment. FIG. 2C depicts a tissue version of the scrape and load test, developed to evaluate functional gap junction intercellular communication in liver tissue. Cx32+/+ and Cx32−/− mice were treated with saline, 2APB (20 mg/kg), or 2APB plus TAA (200 mg/kg) for 3 hours. Livers were excised, cut into 2-3 mm slices, and a small area of each slice was mechanically damaged with the insertion of a 27 gauge needle coated with 0.5% Lucifer yellow (gap junction permeable) and 0.5% Texas red labeled dextran (gap junction impermeable). Slices were washed, fixed, cryosectioned (7 μm), and analyzed by fluorescence microscopy (n>5) and custom automated image analysis software to produce iso-intensity contour maps outlining spread of Lucifer yellow and dextran-Texas red. […] FIG. 2D: Serum alanine aminotransferase (ALT) levels; FIG. 2E: liver tissue MPO activity; and FIG. 2F: H&E liver sections (original magnification 10×; scale bar=400 μm) from wildtype mice pretreated with 2APB (20 mg/kg) or vehicle for 60 minutes, and then challenged with TAA (200 mg/kg) for 24 hours.
as §2
Liver cryosections from Cx32+/+ mice treated with vehicle, TAA (200 mg/kg) plus vehicle, or TAA (200 mg/kg) plus 2APB (20 mg/kg) for 4 hours were stained with dihydroethidium, a cell permeable free radical probe that binds nucleic DNA and becomes fluorescent when […], and analyzed by fluorescence microscopy for ROS activity (n>5).
TAA (Sigma Aldrich, St. Louis, Mo.) solution was made fresh for each experiment in 0.9% saline at 20 mg/ml. TAA was dosed at 200, 500 or 1000 mg/kg, depending on the experiment, and injected intraperitoneally. Control mice received the appropriate volume of 0.9% saline. Animals were euthanized by ketamine/xylazine injection at 24 hr for collection of serum and liver tissue for qPCR, GSH/GST assay, MPO activity assay, and histology. For survival experiments, animals were observed every 24 hr for 30 days.
2APB (Sigma Aldrich) was made fresh for each experiment in DMSO as a vehicle at 200 mg/ml. […]

[8] = 2APB (20 mg/kg) coadministered with APAP (500 mg/kg), 16 hours
[9] = rescue injection of 2APB (20 mg/kg) 6 hours after APAP (500 mg/kg)
[10] = 2APB coadministered with TAA (200 mg/kg), 24 hours
[11] = rescue injection of 2APB (20 mg/kg) 6 hours after TAA (200 mg/kg)
[12] = single dose 2APB (20 mg/kg) 60 minutes prior to TAA (200 mg/kg), 24 hours, compared to vehicle

SMILES: CC(=N)S [TAA, thioacetamide]
- mortality ([1]; Cx32+/+ mice): 100%
- survival ([1]; Cx32−/− mice): 100%

SMILES: NCCOB(c1ccccc1)c1ccccc1 [2APB, 2-aminoethyoxydiphenyl-borate]
- hepatic gap junction communication in vivo (spread of Lucifer yellow) [2]: effectively blocks
- inhibition of Cx32 gap junctions in vitro [3]: transiently inhibit
- histological evidence of hepatic necrosis and hemorrhaging [4, 8]: dramatically reduced
- neutrophil infiltration (liver tissue MPO activity) [4, 8]: dramatically reduced
- serum ALT ([4]; 2APB (20 mg/kg) coadministered with APAP (500 mg/kg), 16 hours, compared with APAP alone): dramatically reduced
- liver inflammation ([4]; 2APB coadministered with APAP): dramatically reduced
- total hepatic ROS levels ([4]; 2APB coadministered with APAP): dramatically reduced
- hepatotoxicity ([4]; rescue injection of 2APB (20 mg/kg) 1.5 hours after APAP (500 mg/kg)): nearly complete absence
- hepatocellular damage and necrosis [4, 9]: limited
- serum ALT levels [4, 9]: reduced
- spread of calcein via Cx32 gap junctions [5]: blocked
- effect on Cx43 gap junctions (spread of calcein) [6]: minimal effect
- total hepatic ROS levels [7]: dramatically reduced
- total hepatic ROS levels ([7]; listed as 2-APB): abrogated
- serum ALT ([7]; 2APB (1 or 20 mg/kg) coadministered with TAA (200 mg/kg), 24 hours, compared with TAA alone): dramatically reduced
- histological evidence of hepatic necrosis and hemorrhaging [7, 10]: dramatically reduced
- neutrophil infiltration (liver tissue MPO activity) [7, 10]: dramatically reduced
- liver inflammation ([7]; 2APB coadministered with TAA (200 mg/kg), Q-PCR of whole livers): dramatically reduced
- hepatotoxicity ([7]; rescue injection of 2APB (20 mg/kg) 1.5 hours after TAA (200 mg/kg)): nearly complete absence
- hepatocellular damage and necrosis [7, 11]: limited
- serum ALT levels [7, 11]: reduced
- histological evidence of parenchymal damage [7, 12]: dramatically reduced
- neutrophil infiltration (liver tissue MPO activity) [7, 12]: limited
- serum ALT [7, 12]: significantly reduced
- survival ([7]; single lethal dose TAA (500 mg/kg) plus 2APB (20 mg/kg), 30 days): 100%
